Experiments:
[1] = target: CDK2/CycA2 (Homo sapiens, UniProt P24941); assay: ADP-Glo kinase assay on CDK enzymatic activity, CDK2/CycA2; format: biochemical; settings: 10 concentrations from 10 μM, 4-fold, 60 min room temperature
Procedure, shortened: (§1)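 Compounds were tested as 10-point, 4-fold dilutions from 10 μM final, preincubated 10 min at room temperature with kinase, then reacted 60 min with CDK tide substrate and ATP. ADP formed was detected by ADP-Glo luminescence; inhibition was normalised to 1 μM AZD4573 and 0.5% DMSO controls and IC50 fitted.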

[2] = target: CDK1/CycE1 (Homo sapiens, UniProt P06493); assay: ADP-Glo kinase assay on CDK enzymatic activity, CDK1/CycE1; format: biochemical; settings: ADP-Glo; 10 concentrations from 10 μM, 4-fold; 60 min room temperature; read-out: CDK1/CycE1/nM (IC50)
CDK1/CycE1, sequence (P06493 whole entry, species assumed): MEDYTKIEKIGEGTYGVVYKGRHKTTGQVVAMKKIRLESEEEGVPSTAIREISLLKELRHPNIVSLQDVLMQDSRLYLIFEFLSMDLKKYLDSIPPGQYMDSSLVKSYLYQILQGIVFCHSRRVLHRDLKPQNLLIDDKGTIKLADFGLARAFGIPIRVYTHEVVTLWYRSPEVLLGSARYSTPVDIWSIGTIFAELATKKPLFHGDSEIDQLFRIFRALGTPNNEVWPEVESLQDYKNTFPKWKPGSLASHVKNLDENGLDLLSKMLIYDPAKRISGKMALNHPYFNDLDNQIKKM
CDK1/CycE1, sequence (P24864 whole entry partner, species assumed): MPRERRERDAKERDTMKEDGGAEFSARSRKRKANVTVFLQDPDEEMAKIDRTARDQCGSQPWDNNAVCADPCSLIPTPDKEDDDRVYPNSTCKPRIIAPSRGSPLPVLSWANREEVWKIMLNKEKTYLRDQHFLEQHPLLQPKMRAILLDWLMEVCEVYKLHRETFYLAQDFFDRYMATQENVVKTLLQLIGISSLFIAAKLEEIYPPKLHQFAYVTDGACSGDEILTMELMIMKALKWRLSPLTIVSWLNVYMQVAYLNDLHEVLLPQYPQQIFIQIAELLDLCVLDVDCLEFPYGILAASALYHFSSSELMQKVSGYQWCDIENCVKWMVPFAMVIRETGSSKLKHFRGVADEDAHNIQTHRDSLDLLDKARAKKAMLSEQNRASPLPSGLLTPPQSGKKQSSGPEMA
Procedure, shortened: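 Compounds in 10-point 4-fold dilutions from 10 μM final, preincubated 10 min with kinase, then substrate/ATP added; 60 min reaction at room temperature. ADP-Glo luminescence read.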

[3] = target: CDK9/CycT1 (Homo sapiens, UniProt P50750); assay: ADP-Glo kinase assay on CDK enzymatic activity, CDK9/CycT1; format: biochemical; settings: 10 concentrations from 10 μM, 4-fold, 60 min room temperature
CDK9/CycT1, sequence (P50750 whole entry): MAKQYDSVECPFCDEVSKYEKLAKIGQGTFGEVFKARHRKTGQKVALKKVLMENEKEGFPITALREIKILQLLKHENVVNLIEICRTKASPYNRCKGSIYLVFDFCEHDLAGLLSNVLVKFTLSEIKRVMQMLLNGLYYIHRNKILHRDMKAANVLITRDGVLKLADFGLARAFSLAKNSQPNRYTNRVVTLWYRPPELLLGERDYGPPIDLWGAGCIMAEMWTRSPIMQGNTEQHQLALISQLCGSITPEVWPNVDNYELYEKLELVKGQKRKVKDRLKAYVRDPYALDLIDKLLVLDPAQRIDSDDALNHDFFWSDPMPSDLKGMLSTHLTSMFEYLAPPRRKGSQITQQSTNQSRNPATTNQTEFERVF
CDK9/CycT1, sequence (O60563 whole entry partner): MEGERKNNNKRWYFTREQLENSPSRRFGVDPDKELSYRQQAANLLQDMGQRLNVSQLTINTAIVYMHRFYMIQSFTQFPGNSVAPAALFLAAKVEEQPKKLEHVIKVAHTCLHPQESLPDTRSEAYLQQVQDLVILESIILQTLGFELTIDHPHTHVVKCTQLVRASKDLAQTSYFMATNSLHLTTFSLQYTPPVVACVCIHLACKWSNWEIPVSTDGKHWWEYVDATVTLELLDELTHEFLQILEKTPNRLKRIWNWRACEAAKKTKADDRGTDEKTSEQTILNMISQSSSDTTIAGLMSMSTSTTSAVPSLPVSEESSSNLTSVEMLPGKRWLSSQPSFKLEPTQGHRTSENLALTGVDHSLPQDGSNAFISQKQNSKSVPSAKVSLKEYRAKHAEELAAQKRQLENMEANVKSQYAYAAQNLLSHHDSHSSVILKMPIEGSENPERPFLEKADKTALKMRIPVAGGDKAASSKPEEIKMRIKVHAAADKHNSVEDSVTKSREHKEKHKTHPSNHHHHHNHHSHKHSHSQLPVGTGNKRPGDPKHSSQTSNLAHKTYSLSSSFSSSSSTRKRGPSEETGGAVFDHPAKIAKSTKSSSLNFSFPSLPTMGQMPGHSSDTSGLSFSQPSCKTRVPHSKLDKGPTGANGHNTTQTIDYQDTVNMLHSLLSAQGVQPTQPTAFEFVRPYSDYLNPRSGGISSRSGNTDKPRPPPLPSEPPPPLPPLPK
Procedure, shortened: as §1

[4] = target: CDK3/CycE1 (Homo sapiens, UniProt Q00526); assay: ADP-Glo kinase assay on CDK enzymatic activity, CDK3/CycE1; format: biochemical; settings: 10 concentrations from 10 μM, 4-fold, 60 min room temperature
CDK3/CycE1, sequence (Q00526 whole entry, species assumed): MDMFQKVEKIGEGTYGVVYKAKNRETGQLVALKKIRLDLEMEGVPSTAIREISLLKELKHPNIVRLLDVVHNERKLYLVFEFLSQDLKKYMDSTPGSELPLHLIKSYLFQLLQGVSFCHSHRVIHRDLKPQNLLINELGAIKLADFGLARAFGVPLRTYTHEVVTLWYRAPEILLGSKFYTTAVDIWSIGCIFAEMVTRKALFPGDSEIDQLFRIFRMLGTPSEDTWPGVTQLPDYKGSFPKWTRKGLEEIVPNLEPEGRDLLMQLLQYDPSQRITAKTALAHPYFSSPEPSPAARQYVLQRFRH
CDK3/CycE1, sequence (P24864 whole entry partner, species assumed): as the sequence (P24864 whole entry partner, species assumed) above
Procedure, shortened: as §1

[5] = system: NCI-H929 (human myeloma cells); assay: CCK-8 cell proliferation assay, NCI-H929; format: cell-based; settings: 72 h incubation, 11 concentrations from 5000 nM, 3-fold
Description: Test samples: the compounds of the present invention, having structures shown above.
RMPI 1640, Fetal Bovine Serum (FBS), a CCK-8 method cell proliferation assay kit, DMSO (dimethyl sulfoxide), a 96-well cell culture plate, an Iscov'Modified Dulbecco's culture medium (IMDM), a multifunctional microplate reader,
MV-4-11 (human myelomonocytic leukemia cells) and NCI-H929 (human myeloma cells).
The compounds were dissolved in DMSO and diluted 3-fold in the 96-well plate to obtain stock solutions with 11 concentration gradients. Each cell was inoculated into a 96-well plate, and the diluted compound stock solution was added to the 96-well plate to obtain a series of 11 concentration gradients of compound solutions with final concentrations of 5000 nM starting and 3-fold gradient decreasing, wherein the final DMSO content was […]. There was a medium containing 1‰ DMSO in the negative control well. The treated cells were incubated at 37° C. with 5% CO2 and 95% humidity, wherein MV-4-11 were incubated for 24 h and NCI-H929 for 72 h. After incubation was completed, each well was added with 10 μL of CCK-8 reagent, incubated for 1-3 h at room temperature and placed in the microplate reader, and the absorbance was read at 450 nm.
The inhibition rate was calculated according to the following formula: […]
ODcmpd: compound absorbance; ODpositive: average value of the absorbance of positive control without compound; ODvehicle: average value of the absorbance of solvent vehicle control.
IC50 values were fitted using GraphPad 7.0 based on inhibition rates of compounds at different concentrations.

[6] = target: CDK5/p25NCK (Homo sapiens, UniProt Q00535); assay: ADP-Glo kinase assay on CDK enzymatic activity, CDK5/p25NCK; format: biochemical; settings: 10 concentrations from 10 μM, 4-fold, 60 min room temperature
CDK5/p25NCK, sequence (Q00535 whole entry, species assumed): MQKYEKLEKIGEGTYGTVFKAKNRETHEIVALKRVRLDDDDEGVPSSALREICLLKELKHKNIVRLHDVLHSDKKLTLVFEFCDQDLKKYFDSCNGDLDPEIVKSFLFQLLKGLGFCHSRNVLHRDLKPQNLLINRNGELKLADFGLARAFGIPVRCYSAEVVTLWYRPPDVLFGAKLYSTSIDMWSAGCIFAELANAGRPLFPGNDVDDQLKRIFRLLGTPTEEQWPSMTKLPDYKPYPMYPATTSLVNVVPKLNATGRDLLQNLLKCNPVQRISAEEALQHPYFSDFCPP
CDK5/p25NCK, sequence (Q15078 99-307 partner limits assumed, species assumed): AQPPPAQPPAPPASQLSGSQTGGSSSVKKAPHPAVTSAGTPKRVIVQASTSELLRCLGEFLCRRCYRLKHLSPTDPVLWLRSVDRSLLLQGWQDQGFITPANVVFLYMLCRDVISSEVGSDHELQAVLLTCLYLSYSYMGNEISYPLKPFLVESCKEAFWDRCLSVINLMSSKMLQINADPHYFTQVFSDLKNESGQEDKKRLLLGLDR
Procedure, shortened: as §1

| IC50 [1] [nM] | IC50 [2] [nM] | IC50 [3] [nM] | IC50 [4] [nM] | IC50 [5] [nM] | IC50 [6] [nM] | SMILES |
| --- | --- | --- | --- | --- | --- | --- |
| 50 | 220 | 3 | 97 | 25 | 96 | CC(C)Nc1nc(C#N)cc2cnc(N[C@H]3CC[C@H](N)C3)cc12 [Compound 28, 7-(((1S,3S)-3-aminocyclopentyl)amino)-1-(isopropylamino)-2,6-naphthyridine-3-carbonitrile] |
| 15 |  | 2 | 95 | 14 | 31 | CC(C)Nc1nc(C#N)cc2cnc(N[C@@H]3CC[C@@H](N)C3)cc12 [Compound 30, 7-(((1R,3R)-3-aminocyclopentyl)amino)-1-(isopropylamino)-2,6-naphthyridine-3-carbonitrile] |
| 3 |  | 1 | 9 | 8 | 3 | CC(C)Nc1nc(C#N)cc2cnc(N[C@H]3CC[C@H](O)C3)cc12 [Compound 33, 7-(((1S,3S)-3-hydroxycyclopentyl)amino)-1-(isopropylamino)-2,6-naphthyridine-3-carbonitrile] |
| 47 | 114 | 2 | 85 | 22 | 153 | CC(C)Nc1nc(C#N)cc2cnc(N[C@H]3CC[C@H](N)C3)nc12 [Compound 45, 2-(((1S,3S)-3-aminocyclopentyl)amino)-8-(isopropylamino)pyrido[3,4-d]pyrimidine-6-carbonitrile] |
| 12 |  | 1 | 23 | 9 | 16 | CC(C)Nc1nc(C(F)F)cc2cnc(N[C@H]3CC[C@H](N)C3)cc12 [Compound 52, N^7-((1S,3S)-3-aminocyclopentyl)-3-(difluoromethyl)-N^1-isopropyl-2,6-naphthyridine-1,7-diamine] |
| 60 | 43 | 1 | 24 | 26.1 | 56 | CC(C)Nc1nc(C#N)cc2cnc(N[C@H]3CCCNC3)nc12 [Compound 55, (S)-8-(isopropylamino)-2-(piperidin-3-ylamino)pyrido[3,4-d]pyrimidine-6-carbonitrile] |

Reference: patent US20250163043A1 (TRANSTHERA SCIENCES (NANJING), INC., priority 2021, published 2025)
